Measurements: the supplement of paper PMC13380429

Key:
[1] = test system: A549-ACE2 infected with SARS-CoV-2; test: morphology score (similarity to uninfected cells); higher = more like uninfected cells; conditions: 24 h
[2] = test system: A549-ACE2; test: drug-induced phospholipidosis relative to tamoxifen; higher = more phospholipidosis
[3] = test system: U2OS; test: relative viability EC50 (midpoint between 100% and the lowest measured viability); higher = less toxic; conditions: 72 h
[4] = test system: HepG2; test: as above; conditions: 72 h
[5] = test system: Calu-3; test: as above; conditions: 72 h
[6] = test system: A549-ACE2 infected with SARS-CoV-2; test: cell count relative to DMSO; higher = less toxic; conditions: 24 h
[7] = test system: A549-ACE2 infected with SARS-CoV-2; test: SARS-CoV-2 infection rate relative to DMSO; higher = more infection; conditions: 24 h
[8] = test system: Vero E6; test: drug sensitivity score (DSS) for viability; higher = more toxic; extreme values may be limits of the assay; conditions: 72 h
[9] = test system: U2OS; test: as above; conditions: 72 h
[10] = test system: HepG2; test: as above; conditions: 72 h
[11] = test system: Calu-3; test: as above; conditions: 72 h
[12] = test system: Caco-2; test: as above; conditions: 72 h
[13] = test system: A549-ACE2; test: phospholipidosis EC50; higher = less potent phospholipidosis inducer
[14] = test system: Vero E6; test: cell viability relative to DMSO; higher = less toxic; conditions: 72 h
[15] = test system: U2OS; test: as above; conditions: 72 h
[16] = test system: HepG2; test: as above; conditions: 72 h
[17] = test system: Calu-3; test: as above; conditions: 72 h
[18] = test system: Caco-2; test: as above; conditions: 72 h
[19] = test system: Vero E6; test: relative viability EC50 (midpoint between 100% and the lowest measured viability); higher = less toxic; conditions: 72 h
[20] = test system: Caco-2; test: as above; conditions: 72 h

CCN(CC)CCCCN1c2ccccc2Oc2ccc(Cl)cc21 [10-DEBC]
Conditions	SARS-CoV-2 infection rate [%]	cell count [%]	cell viability [%]	morphology score	phospholipidosis EC50 [µM]
[1], 0.1 µM	–	–	–	-0.05	–
[1], 0.3 µM	–	–	–	0.39	–
[1], 1 µM	–	–	–	0.55	–
[1], 3 µM	–	–	–	0.9	–
[6], 0.1 µM	–	107	–	–	–
[6], 0.3 µM	–	103	–	–	–
[6], 1 µM	–	107	–	–	–
[6], 3 µM	–	127	–	–	–
[7], 0.1 µM	109	–	–	–	–
[7], 0.3 µM	87	–	–	–	–
[7], 1 µM	76	–	–	–	–
[7], 3 µM	55	–	–	–	–
[13], 24 h	–	–	–	–	3.06
[13], 48 h	–	–	–	–	3.97
[13], 72 h	–	–	–	–	4.34
[14], 1 nM	–	–	99.5	–	–
[14], 10 nM	–	–	97.4	–	–
[14], 100 nM	–	–	93.7	–	–
[14], 1000 nM	–	–	92.6	–	–
[14], 10000 nM	–	–	63	–	–
[15], 1 nM	–	–	100	–	–
[15], 10 nM	–	–	96.4	–	–
[15], 100 nM	–	–	94.7	–	–
[15], 1000 nM	–	–	93.3	–	–
[15], 10000 nM	–	–	80.1	–	–
[16], 1 nM	–	–	90.3	–	–
[16], 10 nM	–	–	103	–	–
[16], 100 nM	–	–	87.4	–	–
[16], 1000 nM	–	–	88.7	–	–
[16], 10000 nM	–	–	45.3	–	–
[17], 1 nM	–	–	112	–	–
[17], 10 nM	–	–	105	–	–
[17], 100 nM	–	–	110	–	–
[17], 1000 nM	–	–	103	–	–
[17], 10000 nM	–	–	39	–	–
[18], 1 nM	–	–	93.2	–	–
[18], 10 nM	–	–	99.6	–	–
[18], 100 nM	–	–	100	–	–
[18], 1000 nM	–	–	102	–	–
[18], 10000 nM	–	–	66.1	–	–

drug-induced phospholipidosis [%], [2]
Conditions	0.3 µM	0.833333 µM	3.33333 µM	6.66667 µM	10 µM
24 h	0.51	1.58	47.7	76.9	81.2
48 h	1.97	2.56	41	88.5	101
72 h	2.46	1.09	30.1	85.5	98.7

Conditions	drug sensitivity score	relative viability EC50 [µM]
[3]	–	> 10
[4]	–	1.76
[5]	–	3.43
[8]	3	–
[9]	0.8	–
[10]	4.7	–
[11]	3.1	–
[12]	1.4	–

O=[N+]([O-])c1ccccc1S(=O)(=O)NCC1CCC(CNC[C@H]2CCc3ccccc3C2)CC1 (stereo partly drawn) [NTNCB]
Conditions	SARS-CoV-2 infection rate [%]	cell count [%]	cell viability [%]	morphology score	phospholipidosis EC50 [µM]
[1], 0.1 µM	–	–	–	0.29	–
[1], 0.3 µM	–	–	–	-0.23	–
[1], 1 µM	–	–	–	0.28	–
[1], 3 µM	–	–	–	0.73	–
[6], 0.1 µM	–	101	–	–	–
[6], 0.3 µM	–	99	–	–	–
[6], 1 µM	–	103	–	–	–
[6], 3 µM	–	119	–	–	–
[7], 0.1 µM	90	–	–	–	–
[7], 0.3 µM	102	–	–	–	–
[7], 1 µM	84	–	–	–	–
[7], 3 µM	36	–	–	–	–
[13], 24 h	–	–	–	–	1.46
[13], 48 h	–	–	–	–	3.21
[13], 72 h	–	–	–	–	5.01
[14], 1 nM	–	–	94.9	–	–
[14], 10 nM	–	–	95.3	–	–
[14], 100 nM	–	–	89.8	–	–
[14], 1000 nM	–	–	94.5	–	–
[14], 10000 nM	–	–	79.2	–	–
[15], 1 nM	–	–	96.2	–	–
[15], 10 nM	–	–	93	–	–
[15], 100 nM	–	–	99.6	–	–
[15], 1000 nM	–	–	94.9	–	–
[15], 10000 nM	–	–	72.5	–	–
[16], 1 nM	–	–	99.1	–	–
[16], 10 nM	–	–	96.6	–	–
[16], 100 nM	–	–	91	–	–
[16], 1000 nM	–	–	101	–	–
[16], 10000 nM	–	–	57.1	–	–
[17], 1 nM	–	–	104	–	–
[17], 10 nM	–	–	103	–	–
[17], 100 nM	–	–	96.6	–	–
[17], 1000 nM	–	–	105	–	–
[17], 10000 nM	–	–	15	–	–
[18], 1 nM	–	–	93.7	–	–
[18], 10 nM	–	–	95.2	–	–
[18], 100 nM	–	–	98.8	–	–
[18], 1000 nM	–	–	86.6	–	–
[18], 10000 nM	–	–	64.8	–	–

drug-induced phospholipidosis [%], [2]
Conditions	0.3 µM	0.833333 µM	3.33333 µM	6.66667 µM	10 µM	30 µM
24 h	2.25	13.4	66.1	101	91.2	45.6
48 h	4.73	11.2	54.3	93.7	117	42.7
72 h	6.41	10.5	45.9	102	126	–

Conditions	drug sensitivity score	relative viability EC50 [µM]
[5]	–	3.49
[8]	0.9	–
[9]	1.9	–
[10]	2.1	–
[11]	4.3	–
[12]	3.3	–
[19]	–	> 10

Cc1cc(Nc2ccc(NC(=O)c3ccc(Nc4ccnc5ccccc45)cc3)cc2)nc(N)n1 [SGI-1027]
Conditions	SARS-CoV-2 infection rate [%]	cell count [%]	cell viability [%]	morphology score	phospholipidosis EC50 [µM]
[1], 0.1 µM	–	–	–	0.25	–
[1], 0.3 µM	–	–	–	-0.15	–
[1], 1 µM	–	–	–	0.65	–
[1], 3 µM	–	–	–	0.16	–
[6], 0.1 µM	–	106	–	–	–
[6], 0.3 µM	–	95	–	–	–
[6], 1 µM	–	106	–	–	–
[6], 3 µM	–	34	–	–	–
[7], 0.1 µM	91	–	–	–	–
[7], 0.3 µM	101	–	–	–	–
[7], 1 µM	59	–	–	–	–
[7], 3 µM	24	–	–	–	–
[13], 24 h	–	–	–	–	2.95
[13], 48 h	–	–	–	–	3.26
[13], 72 h	–	–	–	–	3.61
[14], 1 nM	–	–	96.9	–	–
[14], 10 nM	–	–	99	–	–
[14], 100 nM	–	–	94.7	–	–
[14], 1000 nM	–	–	96.6	–	–
[14], 10000 nM	–	–	63.9	–	–
[15], 1 nM	–	–	98.1	–	–
[15], 10 nM	–	–	104	–	–
[15], 100 nM	–	–	103	–	–
[15], 1000 nM	–	–	104	–	–
[15], 10000 nM	–	–	1	–	–
[16], 1 nM	–	–	110	–	–
[16], 10 nM	–	–	108	–	–
[16], 100 nM	–	–	104	–	–
[16], 1000 nM	–	–	39.5	–	–
[16], 10000 nM	–	–	-0.3	–	–
[17], 1 nM	–	–	106	–	–
[17], 10 nM	–	–	109	–	–
[17], 100 nM	–	–	112	–	–
[17], 1000 nM	–	–	106	–	–
[17], 10000 nM	–	–	2.8	–	–
[18], 1 nM	–	–	103	–	–
[18], 10 nM	–	–	114	–	–
[18], 100 nM	–	–	103	–	–
[18], 1000 nM	–	–	99.4	–	–
[18], 10000 nM	–	–	13.1	–	–

drug-induced phospholipidosis [%], [2]
Conditions	0.3 µM	0.833333 µM	3.33333 µM	6.66667 µM
24 h	6.15	4.67	40.2	55.8
48 h	5.31	4.66	44.4	77.3
72 h	4.09	2.03	32.5	76.8

Conditions	drug sensitivity score	relative viability EC50 [µM]
[3]	–	3.39
[4]	–	0.844
[5]	–	3.48
[8]	2.3	–
[9]	5.2	–
[10]	12.6	–
[11]	5	–
[12]	4.9	–
[20]	–	3.12

Cc1cccc(/C=N/Nc2cc(N3CCOCC3)nc(OCCc3ccccn3)n2)c1 [STA-5326]
Conditions	SARS-CoV-2 infection rate [%]	cell count [%]	cell viability [%]	morphology score	phospholipidosis EC50 [µM]
[1], 0.3 µM	–	–	–	-0.01	–
[1], 3 µM	–	–	–	-0.14	–
[1], 10 µM	–	–	–	0	–
[1], 30 µM	–	–	–	0.18	–
[6], 0.3 µM	–	104	–	–	–
[6], 3 µM	–	95	–	–	–
[6], 10 µM	–	106	–	–	–
[6], 30 µM	–	108	–	–	–
[7], 0.3 µM	51	–	–	–	–
[7], 3 µM	77	–	–	–	–
[7], 10 µM	91	–	–	–	–
[7], 30 µM	35	–	–	–	–
[13], 24 h	–	–	–	–	0.3
[13], 48 h	–	–	–	–	0.809
[13], 72 h	–	–	–	–	0.687
[14], 1 nM	–	–	97.2	–	–
[14], 10 nM	–	–	104	–	–
[14], 100 nM	–	–	93.8	–	–
[14], 1000 nM	–	–	42.4	–	–
[14], 10000 nM	–	–	43.2	–	–
[15], 1 nM	–	–	97.6	–	–
[15], 10 nM	–	–	100	–	–
[15], 100 nM	–	–	95	–	–
[15], 1000 nM	–	–	91.3	–	–
[15], 10000 nM	–	–	75.1	–	–
[16], 1 nM	–	–	99.3	–	–
[16], 10 nM	–	–	88.2	–	–
[16], 100 nM	–	–	93	–	–
[16], 1000 nM	–	–	26.2	–	–
[16], 10000 nM	–	–	19.7	–	–
[17], 1 nM	–	–	104	–	–
[17], 10 nM	–	–	104	–	–
[17], 100 nM	–	–	97.9	–	–
[17], 1000 nM	–	–	93.6	–	–
[17], 10000 nM	–	–	90.1	–	–
[18], 1 nM	–	–	91.2	–	–
[18], 10 nM	–	–	96.4	–	–
[18], 100 nM	–	–	94.7	–	–
[18], 1000 nM	–	–	78.9	–	–
[18], 10000 nM	–	–	60.8	–	–

drug-induced phospholipidosis [%], [2]
Conditions	0.3 µM	0.833333 µM	3.33333 µM	6.66667 µM	10 µM	30 µM
24 h	103	105	105	124	111	85.7
48 h	104	80.8	58.2	63.7	66	–
72 h	113	59.5	34.8	46.3	59.3	–

Conditions	drug sensitivity score	relative viability EC50 [µM]
[3]	–	> 10
[4]	–	0.308
[5]	–	> 10
[8]	11.6	–
[9]	1.5	–
[10]	14.6	–
[11]	0	–
[12]	4.2	–
[19]	–	0.228
